Legend:
HEp3 cells = test: Intravasation assay: chick embryo CAM with Alu-PCR of lower CAM; format: in vivo, human
MMP-9 = test: Gelatin gel zymography of HEp3 conditioned medium, MMP-9; format: biochemical, human; conditions: 80 nM
Description: (§1) FIG. 10. […] Serum-free conditioned medium of HEp3 cells was collected and electrophoresed on PAGE by loading 10 μl into each of five wells. The gel was sliced to include one sample per slice and each slice was incubated with marimastat at the indicated concentrations (0-1.6 μM) and the gels were incubated only for 22 hr.
(§2) Ten μl aliquots of conditioned media were electrophoresed at 4° C. on 8% PAGE containing 0.1% gelatin, the gel washed in 2.5% Triton X-100 for 30 min, rinsed in water, and incubated for 40 hrs at 37° C. in buffer containing 50 mM Tris pH 7.7, 5 mM CaCl2, and 0.02% NaN3. To test for inhibition of MMPs by BB2516, HEp3 cell conditioned medium was electrophoresed in quadruplicate. The gel was cut into 4 fragments each containing one sample (lane) and incubated separately as above except that marimastat was added in increasing concentration to the incubation buffer. All gels were stained with Coomassie blue, de-stained and dried between dialysis sheets.

MMP-1 = test: Gelatin gel zymography of HEp3 conditioned medium, MMP-1; format: biochemical, human; conditions: 80 nM
Description: as §1, §2

MMP-2 = test: Gelatin gel zymography of HEp3 conditioned medium, MMP-2; format: biochemical, human; conditions: 1.6 μM, highest concentration tested
Description: as §1, §2

[1] = tested on: MMP-1, MMP-2, MMP-3, MMP-7 and MMP-9; conditions: one range printed for MMP-1, MMP-2, MMP-3, MMP-7 and MMP-9 together; cited from earlier work

## CNC(=O)[C@@H](NC(=O)[C@H](CC(C)C)[C@H](O)C(=O)NO)C(C)(C)C [marimastat]
HEp3 cells; 200 μM inhibitor, compared with 100 μM
  inhibition of intravasation: less effective
HEp3 cells; final concentration of 50 nM, separate experiment
  inhibition of intravasation: […]
MMP-9
  inhibition of MMP-9 activity (zymogram): block most
MMP-1
  inhibition of MMP-1 activity (zymogram): […]
MMP-2
  inhibition of MMP-2 activity (zymogram): residual lysis zone
MMP-2; listed as Marimastat
  inhibition of MMP-2 activity (zymogram): not completely inhibited
[1]
  IC50: […]
